Data taken from patent publication US4328242A, “α-(3,4,5-Trimethoxyhenzoyl)thiopropionyl-glycine” (Ausoria Farmaceutici S.r.l., priority 1980, dated 1982).
Where two headings read alike, the source gives them in different places.

Tests used:
[1] = Stability to moisture; assay type: physicochemical; details: open vials, 90% relative humidity, a month
Procedure: Samples of TBPG and MPG have been maintained in open vials at room temperature under conditions of 90% relative humidity and at 50° C. always with 90% relative humidity. After a month of exposure, the following observations have been made.

[2] = Stability in solution (acidic, alkaline, oxidizing medium); assay type: physicochemical; details: 3% hydrogen peroxide, two months
[3] = Stability in reducing medium (SO2); assay type: physicochemical; details: 25 mg/ml, sodium bisulfite calculated as SO2, refluxed three hours
Procedure: In the presence of SO2 --solutions containing 25 mg/ml of TBPG and MPG respectively in the presence of sodium bisulfite calculated as SO2 are warmed and refluxed for a period of three hours.

[4] = test system: guinea pigs; assay: Protective activity in subacute bronchitis induced by inhalation of citric acid; assay type: in vivo; details: 7.5% citric acid inhalation, oral route, equimolar doses
[5] = test system: rats; assay: Regenerative action in partial hepatectomy; assay type: in vivo; details: partial hepatectomy, equimolar doses
[6] = test system: rats; assay: Action on the period of sleep induced by barbiturates; assay type: in vivo; details: rats intoxicated with CCl4; equimolar doses
Procedure: The activity of TBPG administered for two days in the dose of 200 and 400 mg/kg orally, has been determined on the basis of the reduction of the period of sleep induced by Nembutal on rats intoxicated with CCl4.

[7] = solid state as a dry powder and in solution, even at low relative humidity and room temperature; cited from earlier work
[8] = test system: rats; assay: Protective activity of the liver in the intoxication caused by CCl4 (BSF elimination); assay type: in vivo; details: rats intoxicated with CCl4; 90 and 180 mg/kg orally (equimolar)
Procedure: The animals, that is rats, were intoxicated with CCl4 for a period of seven days. They were treated during the same days and for a subsequent period of seven days with TBPG in the dose of 200 and 400 mg/kg orally and with α-mercaptopropionylglycine in the dose of 90 and 180 mg/kg orally. On the fifteenth day, the rats have been treated with BSF in the amount of 10 mg/kg intravenously.

[9] = assay type: in vivo; details: rats, oral route, equimolar doses
[10] = test system: rats; assay: Bronchosecretolithic activity in rats (sodium fluorescine method); assay type: in vivo; details: 135 mg/kg intraperitoneally (equimolar)
Procedure: The secretolithic activity of TBPG has been determined in comparison to α-mercaptopropionylglycine by administering 300 mg/kg of the substance intraperitonally and comparing with 135 mg/kg of α-mercaptopropionylglycine administered also intraperitoneally. The doses are equimolar. The method is based on the use of sodium fluorescine described by H. M. Mawatari (Experimental Studies on the Expectorant Action of Several Drugs, Kogoshima Daigakeu Igakeu Zasshi 27, 561, 1976).

[11] = test system: rabbits; assay: Secretory activity in rabbits (bronchial secretion); assay type: in vivo; details: with respect to the control animals
Text: This activity has been determined using the method described by E. M. Boyd and C. F. Boyd, modified by P. C. Braga, et al described in Bronchial Hypersecretion, 1973. This activity has been determined every hour for a period of four hours by measuring the amount of bronchial secretion derived from the laryngo-tracheal organs and from the tracheo-bronchial organs of rabbits.

[12] = Stability at room temperature; assay type: physicochemical; details: closed containers, 36 months
Text: Five different samples of TBPG and α-mercaptopropionyl glycine have been preserved at room temperature in closed containers for a period of 36 months. At the end of the storage period, the following properties have been determined: […]

[13] = Stability to light; assay type: physicochemical; details: powder form, light of a 60 watt lamp, three months
[14] = Isothermic (accelerated) stability according to the method of Garret, TLC; assay type: physicochemical
Procedure: The tests of accelerated stability have been carried out with the substance in powder form, that is in glass vials, hermetically closed with a plastic screw cap and also with the substance dissolved in water, that is 500 mg in 10 cc in a transparent glass container of 20 cc capacity closed with a plastic screw cap.
The production of impurities, if any, due to degradation of the substance, has been determined by means of TLC.

[15] = test system: rats; assay: Protective action on chronic bronchitis induced by inhalation of SO2; assay type: in vivo; details: SO2 aerosol, equimolar dosages
Procedure: Bronchopulmonary lesions were induced in the animals by aerosolization of SO2. The animals were then treated for two weeks with TBPG in the dosage of 100 and 400 mg/kg by the oral route, rectal route and by inhalation.

[16] = test system: guinea pigs; assay: Antibronchospastic activity, histamine aerosol; assay type: in vivo; details: equimolar doses
Text: Histamine administered in the form of an aerosol has caused in guinea pigs symptoms of broncho-spasm accompanied by convulsions, irreversible collapse and death.

[17] = Powder, 60°, read-out: Chromatographic Impurities
[18] = Powder, 70°, read-out: Chromatographic Impurities
[19] = Powder, 80°, read-out: Chromatographic Impurities
[20] = Solution (500 mg in 10 cc water), 60°, read-out: Chromatographic Impurities
[21] = Solution (500 mg in 10 cc water), 70°, read-out: Chromatographic Impurities
[22] = Solution (500 mg in 10 cc water), 80°, read-out: Chromatographic Impurities

CC(S)C(=O)NCC(=O)O (stereo not drawn) [α-mercaptopropionylglycine, 2-mercaptopropionylglycine]
stability to moisture ([1]; 50° C.): marked change in color, odor and taste accompanied by degradation products | stability to moisture ([1]; room temperature (t.a.)): significant change of organoleptic properties | stability in oxidizing medium [2]: the change is greater | stability in reducing medium [3]: undergoes substantial physico-chemical and organoleptic change | efficacy compared with TBPG [4]: essentially overlapping | regeneration of the hepatic tissue, compared with TBPG [5]: comparable | reduction of the period of sleep induced by Nembutal, compared with TBPG [6]: essentially comparable | stability on storage [7]: low stability | elimination of BSF, compared with TBPG [8]: comparable | concentration in the kidney [9]: high concentrations in the kidney | distribution in the organs [9]: sufficiently homogenous | bronchosecretolithic activity [10]: 15.2% | laryngo-tracheal secretion [11]: P 0.05 with respect to the control animals | tracheo-bronchial secretion [11]: n.s. | organoleptic properties (taste, odor) [12]: undergo substantial change | stability to light [13]: strong yellow color, due to degradation accompanied by an unpleasant odor and taste | Chromatographic Impurities ([14]; Powder, 60°, 320 hours): Traces | degraded at 960 h [14, 17]: 1% | degraded at 1280 h [14, 17]: 1% | degraded at 1600 h [14, 17]: 2% | Chromatographic Impurities ([14]; Powder, 70°, 120 hours): Traces | degraded at 240 h [14, 18]: 1% | degraded at 480 h [14, 18]: 2% | degraded at 45 h [14, 19]: 1% | degraded at 90 h [14, 19]: 1% | degraded at 180 h [14, 19]: 2% | Chromatographic Impurities ([14]; Solution (500 mg in 10 cc water), 60°, 0 hours): Absent | degraded at 320 h ([14]; Solution (500 mg in 10 cc water), 60°, 320 hours, read-out: Chromatographic Impurities): 0.5% | degraded at 640 h ([14]; Solution (500 mg in 10 cc water), 60°, 640 hours, read-out: Chromatographic Impurities): 0.6% | degraded at 960 h [14, 20]: 1% | degraded at 1280 h [14, 20]: 1.5% | degraded at 1600 h [14, 20]: 2.5% | degraded at 180 h [14, 21]: 1% | degraded at 240 h [14, 21]: 2% | degraded at 480 h [14, 21]: 2.5% | degraded at 45 h [14, 22]: 1% | degraded at 90 h [14, 22]: 2.5% | degraded at 120 h ([14]; Solution (500 mg in 10 cc water), 80°, 120 hours, read-out: Chromatographic Impurities): 1.5% | protection of the bronchi and lungs, compared with TBPG [15]: Analogous results | antibronchospastic efficacy compared with TBPG [16]: efficacy comparable
